In patent US20260144829A1, “SYNBIOTIC COMPOSITION, METABOLITES, AND METHOD OF PREVENTING AND TREATING OBESITY-RELATED DISEASE” (priority 2023, published 2026):
“Also recorded” adds a separate entry of the source. Residues, ends and D or L forms follow the SMILES beside them.

system: hepatic gene expression; test: Hepatic RNA-sequencing of treated mice; format: in vivo; settings: liver
Experimental: To obtain a more comprehensive understanding of MTA's potential as an antiobesity molecule, hepatic RNA-sequencing was performed on mice treated with both MTA and B. longum to determine its underlying mechanism for preventing obesity. […] Then, we conducted an in-depth analysis of the regulated genes involved in these biological functions. […] Likewise, overexpression of inhibin beta-A, which is encoded by the Inhba gene, can stimulate mitochondrial energy metabolism and increase energy expenditure.
Bile acids are regarded as important signaling molecules to regulate fatty acid, cholesterol, energy and glucose homeostasis; therefore, enhancing bile acid synthesis may be a strategy to avoid diet-induced obesity. Furthermore, the increased expression of Cyp7a1, which encodes the rate-limiting enzyme in the classic bile acid synthesis pathway, prevents high-fat diet-induced obesity, insulin resistance and atherosclerosis.

expression of Cyp7a1 | Compound
up-regulated | CSC[C@H]1O[C@@H](n2cnc3c(N)ncnc32)[C@H](O)[C@@H]1O [MTA, 5′-s-methyl-5′-thioadenosine]

system: HepG2 cells; test: Lipid accumulation assay in uric acid-treated HepG2 cells; format: cell-based; settings: 120 μg/mL uric acid, 24 hours
Experimental: The lipid accumulation assay was done. Briefly, HepG2 cells at 70% confluence were incubated in RPMI 1640 medium containing 120 μg/mL uric acid for 24 hours, which was used to increase the lipid accumulation. After being washed by PBS buffer, the cells were maintained in new RPMI 1640 medium containing the metabolites (5.0, 1.0, 0.5, 0.1, and 0.05 μg/mL, the dried metabolites were redissolved in RPMI 164 medium) and 120 μg/mL uric acid for another 24 hours. Cells maintained in pure RPMI 1640 medium were employed as control.
To further identify bioactive metabolites produced by B. longum, we applied a fractionation approach followed by liquid chromatography-mass spectrometry (LC-MS) coupled with in vitro screening strategy (FIG. 2A). Briefly, the extraction method of B. longum BCRC12585 metabolites (that is, B. longum metabolites, or B. longum crude extract) is the same as in Example 2, and then twenty-five fractions derived from B. longum metabolites were prepared by pre-HPLC column, followed by individually testing the anti-lipid accumulation activity with HepG2 cells. […] To identify candidate metabolites from each active fraction, further analysis was performed by using liquid chromatography coupled with high resolution mass spectrometry (LC-MS/MS). […] Collectively, we integrated in vitro, in vivo, and metabolomics data to identify the bioactive metabolites which could be produced by B. longum.

Compound | lipid accumulation in HepG2 cells
O=C1CC[C@@H](C(=O)O)N1 [PyroGA, pyroglutamic acid] | significantly inhibited
Nc1ncnc2c1ncn2[C@@H]1O[C@H](CO)[C@@H](OP(=O)(O)O)[C@H]1O [3-AMPP, 3-adenosine monophosphate] | significantly inhibited
CC(C)[C@H](NC(=O)[C@@H]1CCC(=O)N1)C(=O)O [Pyro-glu-val, pyro-glutamyl-valine] (HELM PEPTIDE1{[Glp].V}$$$$V2.0) | significantly inhibited
CSCC[C@H](N)C(=O)O [methionine] | significantly inhibited; also recorded: exhibited a lipid-lowering effect
N[C@@H](CCC(=O)O)C(=O)O [GA, glutamic acid] | significantly inhibited
Nc1ncnc2c1ncn2[C@@H]1O[C@H](CO)[C@@H](O)[C@H]1O [adenosine] | significantly inhibited
CC(C)[C@H](N)C(=O)O [valine] | significantly inhibited
